The values below are quoted from earlier work in US20250161199A1, “FORMULATION FOR TREATING AND PREVENTING HAIR LOSS” (DR. BARR - MEDICINE AS ART LTD, priority 2023, published 2025).

In the data set the test system is androgenic alopecia. The note with it: in vivo.

In the case of `CC(C)(C)NC(=O)[C@H]1CC[C@H]2[C@@H]3CC[C@H]4NC(=O)C=C[C@]4(C)[C@H]3CC[C@]12C` [finasteride], the “time until effect becomes apparent” value was “only after several months of treatment”.

As for `C[C@]12C=CC(=O)N[C@@H]1CC[C@@H]1[C@@H]2CC[C@]2(C)[C@@H](C(=O)Nc3cc(C(F)(F)F)ccc3C(F)(F)F)CC[C@@H]12` [dutasteride], the “time until effect becomes apparent” value is reported as “only after several months of treatment”.
